Consider 1 compound from US10793527B2, “Adenosine monophosphate-activated protein kinase agonist” (NATIONAL YANG-MING UNIVERSITY, priority 2016, dated 2020).

The target of data set [1] is T1, AMPKα1 immunoprecipitated protein extract (Homo sapiens, UniProt Q13131).
T1 construct: AMPKα1 immunoprecipitated protein extract; endogenous in cells; host or cells: PLC5 liver cancer cells (immunoprecipitate on Protein A/G magnetic beads)
Nature of the data set: AMPK enzyme activity assay (SAMS peptide), AMPKα1 immunoprecipitated from PLC5 protein extract. It is filed as biochemical. The settings on record: 20-20,000 nM compound; compared to the group without compound addition (FIG. 1A). The protocol: (§1) The protein extract of liver cancer cell PLC5 and the anti-AMPKα1 antibody were incubated in an immunoprecipitation buffer (G-Biosciences) overnight. Protein A/G Magnetic Beads (PureProteome™) are added to each sample respectively and incubated at 4° C. for 4 hours. In the case of the recombinant protein AMPK, 12.5 ng of the recombinant protein human AMPK (α1, β1, γ1) is incubated with various doses of the compound, and then AMPK activities are detected based on the manual of the SAMS peptide assay (Cyclex).
(§2) It is shown by FIGS. 1A and 1B that the SCT-1015 compound can increase the activity of AMPK in liver cancer cells.

In data set [2] the target is recombinant protein human AMPK (α1, β1, γ1) (Homo sapiens, UniProt Q13131). The data set can be described thus: AMPK enzyme activity assay (SAMS peptide), recombinant protein. In kind it is biochemical. The settings on record: 20-2,000 nM compound; compared with the group without compound addition (FIG. 1B). The protocol: as §1, §2
Sequence of recombinant protein human AMPK (α1, β1, γ1) (Q13131 whole entry): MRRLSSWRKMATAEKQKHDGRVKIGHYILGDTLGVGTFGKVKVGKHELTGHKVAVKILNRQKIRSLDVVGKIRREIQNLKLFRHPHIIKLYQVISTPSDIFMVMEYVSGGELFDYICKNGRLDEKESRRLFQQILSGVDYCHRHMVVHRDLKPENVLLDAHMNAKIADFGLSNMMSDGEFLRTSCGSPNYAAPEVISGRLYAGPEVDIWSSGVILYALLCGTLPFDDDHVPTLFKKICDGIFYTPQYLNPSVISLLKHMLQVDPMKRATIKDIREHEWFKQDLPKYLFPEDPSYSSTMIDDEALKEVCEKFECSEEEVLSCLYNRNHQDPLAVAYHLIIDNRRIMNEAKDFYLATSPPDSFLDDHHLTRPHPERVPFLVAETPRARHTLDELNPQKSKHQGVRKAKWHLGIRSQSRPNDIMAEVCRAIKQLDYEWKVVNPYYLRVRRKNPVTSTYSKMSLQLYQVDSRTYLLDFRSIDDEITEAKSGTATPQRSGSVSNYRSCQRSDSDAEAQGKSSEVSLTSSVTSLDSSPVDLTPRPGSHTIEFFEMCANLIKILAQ
Sequence of recombinant protein human AMPK (α1, β1, γ1) (Q9Y478 whole entry partner): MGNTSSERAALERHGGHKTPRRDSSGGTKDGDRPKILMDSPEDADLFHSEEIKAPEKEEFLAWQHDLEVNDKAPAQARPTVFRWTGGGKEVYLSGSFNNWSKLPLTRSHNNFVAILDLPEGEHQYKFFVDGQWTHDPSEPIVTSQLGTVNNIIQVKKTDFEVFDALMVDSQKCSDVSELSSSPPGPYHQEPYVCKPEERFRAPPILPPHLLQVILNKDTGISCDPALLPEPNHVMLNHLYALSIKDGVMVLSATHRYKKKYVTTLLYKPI
Sequence of recombinant protein human AMPK (α1, β1, γ1) (P54619 whole entry partner): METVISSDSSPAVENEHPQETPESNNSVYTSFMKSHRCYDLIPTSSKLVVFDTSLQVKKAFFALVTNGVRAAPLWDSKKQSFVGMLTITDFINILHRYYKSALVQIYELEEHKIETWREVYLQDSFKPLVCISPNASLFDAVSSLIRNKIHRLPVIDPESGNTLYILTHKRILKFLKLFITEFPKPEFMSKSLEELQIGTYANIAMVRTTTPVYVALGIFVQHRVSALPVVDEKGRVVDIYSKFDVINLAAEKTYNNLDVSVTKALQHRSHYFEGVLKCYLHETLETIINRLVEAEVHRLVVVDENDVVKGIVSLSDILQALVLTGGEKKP
The test system of another data set is AMPK T172. Nature of the data set: Detection of AMPK phosphorylation by ELISA assay in PLC5 cells. In kind it is cell-based. Conditions: PLC5 cultured with 10 μM compound for 24 hours, compared to control group. The protocol:
In this analysis, the commercial kit AMPK […] Phospho-ELISA Kit (KHO0651) produced by ThermoFisher Science is utilized. The hepatoma cell PLC5 is cultured with 10 μM of the compound for 24 hours, and the analysis is performed according to the manual, and the absorbance was detected at a wavelength of 450 nm.

A further data set concerns PLC/PRF/5 (PLC5) cells. Nature of the data set: Cell viability of liver cancer cells (Prestoblue), PLC5. In kind it is cell-based. As for the experimental part:
(§3) Hepatoma cell Huh-7 was obtained from Health Science Research Resources Bank (HSRRB, Osaka. Japan; JCRB0403); Hepatoma cell PLC/PRF/5 (PLC5), Sk-Hep-1 and HCC1806 were obtained from the American Type Culture Collection (ATCC, Manassas, Va.). All cell lines are cultured immediately and frozen, so the frozen cells can be thawed every 3 months to allow experiments are conducted with the same batch of cells.
(§4) Analysis is performed using a commercial kit Prestoblue assay produced by Thermo Fisher Scientific. Three liver cancer cell lines PLC/PRF/5, SK-hep1, and Huh-7 are cultured with compound SCT-1015 for 48 hours and 72 hours, respectively. […] The results support that the compound of the present invention can activate AMPK to inhibit the proliferation of liver cancer cells.

The subject of data set [3] is phosphorylated AMPKα (p-AMPKα). Nature of the data set: Detection of AMPK phosphorylation by immuno-blot assay. It is filed as cell-based. Conditions: PLC5, MDA-MB-231 and MDA-MB-453 cells; compared with the non-treated group (FIGS. 2A-2C). The protocol:
(§5) The liver cancer cell PCL5 and the triple negative breast cancer cell (TNBC) MBA-MB-231 and MDA-MB-453 are cultured with the compound SCT-1015, respectively. The cells are collected, wash, and lysed by RIPA buffer to obtain a protein extract. The protein concentration was measured by Bio-Rad Protein Assay dye reagent (Bio-Rad). The protein samples are diluted with 2 times SDS-loading buffer (100 mM Tris HCl, pH 6.8, 200 mM β-mercaptoethanol, 4% SDS, 0.02% bromophenol blue, and 20% glycerol) to adjust volume, and electrophoresis is carried out using 10% SDS polyacrylamide gels and followed by transferring to PVDF membrane. The primary antibody is added to detect the target protein on the membrane, and then the secondary antibody with horseradish peroxidase is added, followed by addition of substrate (enhanced SuperSignal West Pico Cheminluminescent Substrate, Pierce) to obtain the signal of the specific protein. and the protein content is determined by β-actin. The β-actin is used as an internal control for protein amount.

A further data set deals with HIF1 and PDHK1. Nature of the data set: Immuno-blot of downstream signaling molecules in liver cancer cell lines. It is filed as cell-based. The settings on record: PLC/PRF/5, SK-hep1 and Huh-7 (FIG. 2D). The protocol:
as §5

For the next data set, the system named is SK-hep1 cells. The data set can be described thus: Cell viability of liver cancer cells (Prestoblue), SK-hep1. Conditions: 5-20 μM, 48 hours and 72 hours, compared with control (DMSO) (FIG. 3). It is filed as cell-based. The protocol:
as §3, §4

A further data set deals with Huh-7 cells. The data set can be described thus: Cell viability of liver cancer cells (Prestoblue), Huh-7. It is filed as cell-based. The settings on record: 5-20 μM, 48 hours and 72 hours, compared with control (DMSO) (FIG. 3). As for the experimental part:
as §3, §4

The test system of another data set is HCC1806/luc2 cells. The data set can be described thus: In situ triple negative breast cancer mouse model (HCC1806/luc2-bearing orthotopic mice), IVIS. In kind it is in vivo. Conditions: 20 mg/kg, fed daily for 14 days (FIG. 4). The protocol: An in situ triple negative breast cancer mouse model (HCC1806/luc2-bearing orthotopic mice) is established with HCC1806 cells carrying the luciferase (luc2) gene. The experimental mice are divided into two groups, namely (1) control group: solvent; (2) experimental group: compound SCT-1015 (20 mg/kg), and the mice are fed daily for 14 days. On day 0 and day 14, the substrate of luciferase is injected into the peritoneal cavity of mice, and the luminescence from HCC1806/luc2 cells is detected by in vivo imaging system (IVIS) to monitor cell growth.
The results support that the compound of the present invention can activate AMPK to inhibit the growth of triple-negative breast cancer cells.

The subject of another data set is mature adipocytes. Nature of the data set: Cell growth of adipocytes (adipoRed staining, cell imaging). In kind it is cell-based, human. As for the experimental part:
(§6) According to the standard procedure of adipocyte differentiation, human pre-adipocytes are treated with adipogenesis reagent (Gibco StemPro) for 14 days to induce differentiation into mature adipocytes. Next, mature adipocytes are treated with different concentrations of compound SCT-1015 (100 μM, 25 μM, 12.5 μM, 5 μM, and 2.5 μM), solvent only (Mock), or non-treated and cultivated for 48 hours. Then, the adipocytes are stained with adipoRed (Lonza inc.), and the cell number is evaluated by fluorescence signals measured at excited and emission wavelength are 485 nm and 572 nm, respectively. In addition, after the cells were treated with 2.5 μM. of the compound SCT-1015, the cell morphology was also observed through cell imaging.

The test system of a further data set is undifferentiated cells. Nature of the data set: Morphology of undifferentiated cells in the adipocyte culture. It is filed as cell-based. The settings on record: 2.5 μM (FIG. 5B). As for the experimental part:
as §6

Data set [4] is described as follows: Treatment of diet-induced obesity (DIO) mice, body weight. It is filed as in vivo. The settings on record: compared to the control group of mice (FIG. 6). The source says:
The male mice C57BL/6 were purchased from the National Laboratory Animal Center (NLAC, Taipei, Taiwan) and fed high-fat-die for 4 weeks to establish the diet-induced obesity (DIO) mouse model for subsequent experiments

T1 sequence (Q13131 whole entry): as the sequence (Q13131 whole entry) above
T1 sequence (Q9Y478 2-270 partner limits assumed): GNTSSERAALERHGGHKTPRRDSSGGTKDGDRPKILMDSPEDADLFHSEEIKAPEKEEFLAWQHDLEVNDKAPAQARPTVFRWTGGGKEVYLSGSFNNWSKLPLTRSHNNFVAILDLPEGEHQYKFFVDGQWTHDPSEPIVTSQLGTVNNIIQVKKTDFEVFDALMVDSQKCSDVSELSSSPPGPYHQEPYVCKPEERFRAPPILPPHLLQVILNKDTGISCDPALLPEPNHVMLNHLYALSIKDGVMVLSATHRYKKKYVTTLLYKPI
T1 sequence (P54619 whole entry partner): as the sequence (P54619 whole entry partner) above

Turning to `O=C(Nc1cccc(Nc2nccc(-c3ccc[nH]3)n2)c1)Nc1ccc(Cl)c(C(F)(F)F)c1` [SCT-1015, 1-(3-((4-(1H-pyrrol-2-yl)pyrimidin-2-yl)amino)phenyl)-3-(4-chloro-3-(trifluoromethyl)phenyl)urea], in data set [1], the AMPK activity entry is “significant increase”. For the same compound, the “activity of the recombinant protein AMPKα1/β1/γ1” value in data set [2] is reported as “significant increase”. Also, the “AMPK T172 activity” value in the data set on AMPK T172 was determined as 1.8 fold. Further, the IC50 in the data set on PLC/PRF/5 (PLC5) cells (PLC5 cells, 48 hr) came to 12.1 µM. Moreover, the cell proliferation result was “inhibit the cell proliferation significantly” in the data set on PLC/PRF/5 (PLC5) cells (PLC/PRF/5, 5-20 μM, 48 hours and 72 hours, compared with control (DMSO) (FIG. 3)); “inhibit the cell proliferation significantly” with SK-hep1 cells; “inhibit the cell proliferation significantly” with Huh-7 cells. Moreover, the “expression of phosphorylated AMPKα (p-AMPKα)” value in data set [3] is given as “significantly increased”. For the same compound, the “regulation of downstream signaling molecules HIF1 and PDHK1” value in the data set with HIF1 and PDHK1 is “regulates the downstream signaling molecules HIF1 and PDHK1”. In the data set on HCC1806/luc2 cells, the “number of HCC1806/luc2 cell on day 14 compared to control group” value is given as “significantly less”. Moreover, in the data set on HCC1806/luc2 cells, the “number of HCC1806/luc2 cell on day 14 compared to day 0” value was “does not show noteworthy increase”. In addition, the “cell morphology of mature adipocytes” value in the data set with mature adipocytes (2.5 μM (FIG. 5B)) is “shrinkage and death”. The “number of the mature adipocytes” value in the data set with mature adipocytes (2.5-100 μM, 48 hours, compared to control (Mock), dose-dependent (FIG. 5A)) was “significantly decreased”. In addition, the “cell morphology of undifferentiated cells” value in the data set on undifferentiated cells is recorded as “maintain a healthy cell morphology”. This compound also registered a body weight lost in data set [4] of 5%.
